# According to patent US8039493B2, “Biaryl sulfonamide derivatives” (Hoffmann-La Roche Inc., priority 2008, dated 2011):
# What was measured:
# human LXR alpha = biological target: T1, human LXR alpha (Homo sapiens, UniProt Q13133); experiment: Radioligand binding assay (scintillation proximity), LXRα-LBD; conditions: LXRα-LBD on SPA beads, read-out: LXRalpha Binding IC50
# T1 construct: human LXR alpha (aa 164 to 447); made in house; host or cells: E. coli BL21 (pLysS)
# T1 sequence (Q13133 164-447): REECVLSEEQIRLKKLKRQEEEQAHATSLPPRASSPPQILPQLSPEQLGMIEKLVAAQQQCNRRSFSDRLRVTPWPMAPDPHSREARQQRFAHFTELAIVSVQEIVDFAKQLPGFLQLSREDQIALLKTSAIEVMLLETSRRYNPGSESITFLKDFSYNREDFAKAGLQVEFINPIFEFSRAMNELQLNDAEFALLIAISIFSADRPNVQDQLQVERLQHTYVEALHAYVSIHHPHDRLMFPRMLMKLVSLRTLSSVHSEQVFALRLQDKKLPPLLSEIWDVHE
# Experimental: (§1) The following tests were carried out in order to determine the activity of the compounds of the present invention. […] Mammalian expression vectors were constructed to express full-length human LXR alpha and LXR beta. […] To accomplish this, the portions of the sequences encoding the LBDs were amplified from the full-length clones by PCR and then subcloned into the plasmid vectors.
# (§2) Induction, expression, and purification of LBD proteins were performed in E. coli strain BL21 (pLysS) cells by standard methods (Ref: Current Protocols in Molecular Biology, Wiley Press, edited by Ausubel et al).
# (§3) Radioligand Binding Assay
# (§4) LXR alpha and LXR beta receptor binding were assayed in buffer consisting of 50 mM HEPES, pH 7.4, 10 mM NaCl, 5 mM MgCl2. For each 96-well reaction, 500 ng of LXRα-LBD or 700 ng of LXR beta-LBD proteins were bound to 80 μg or 40 μg SPA beads respectively, in a final volume of 50 μl by shaking. The resulting slurry was incubated for 1 h at RT and centrifuged for 2 min at 1300×g. The supernatant containing unbound protein was removed, and the semi-dry pellet containing the receptor-coated beads was re-suspended in 50 μl of buffer. Radioligand (eg. 100,000 dpm of (N-(2,2,2-trifluoroethyl)-N-[4-(2,2,2-trifluoro-1-hydroxy-1-trifluoromethylethyl)-phenyl]-benzenesulfonamide)) was added, and the reaction incubated at RT for 1 h in the presence of test compounds, and then scintillation proximity counting was performed. All binding assays were performed in 96-well plates and the amount of bound ligand was measured on a Packard TopCount using OptiPlates (Packard). Dose response curves were measured within a range of concentration from 10^−10 M to 10^−4 M.
# human LXR beta = biological target: T2, human LXR beta (Homo sapiens, UniProt P55055); experiment: Radioligand binding assay (scintillation proximity), LXR beta-LBD; conditions: LXR beta-LBD on SPA beads, read-out: LXRbeta Binding IC50
# T2 construct: human LXR beta (aa 155 to 460); made in house; host or cells: E. coli BL21 (pLysS)
# T2 sequence (P55055 155-460): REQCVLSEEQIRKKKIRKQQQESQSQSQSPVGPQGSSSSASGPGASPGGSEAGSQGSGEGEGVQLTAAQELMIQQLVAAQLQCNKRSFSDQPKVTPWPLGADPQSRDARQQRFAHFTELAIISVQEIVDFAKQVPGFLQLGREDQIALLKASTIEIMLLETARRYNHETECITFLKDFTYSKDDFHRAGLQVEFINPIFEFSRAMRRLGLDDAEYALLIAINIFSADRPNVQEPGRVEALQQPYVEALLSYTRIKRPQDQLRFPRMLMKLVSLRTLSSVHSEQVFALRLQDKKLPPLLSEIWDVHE
# Experimental: as §1, §2, §3, §4
SMILES,IC50 (human LXR alpha),IC50 (human LXR beta)
"CS(=O)(=O)c1cccc(-c2ncc(CN(C(=O)c3ccccc3)S(=O)(=O)c3ccccc3Cl)s2)c1 [Example 12, N-Benzoyl-2-chloro-N-[2-(3-methanesulfonyl-phenyl)-thiazol-5-ylmethyl]-benzenesulfonamide]",27.3 µM,120 nM
"CS(=O)(=O)c1cccc(-c2ccc(CN(CCN3CCCC3)S(=O)(=O)c3ccccc3C(F)(F)F)s2)c1 [Example 40, N-[5-(3-Methanesulfonyl-phenyl)-thiophen-2-ylmethyl]-N-(2-pyrrolidin-1-yl-ethyl)-2-trifluoromethyl-benzenesulfonamide]",10.7 µM,285 nM
"CS(=O)(=O)c1cccc(-c2ccc(CN(Cc3ccccc3)S(=O)(=O)c3cccc(Cl)c3)s2)c1 [Example 7, N-Benzyl-3-chloro-N-[5-(3-methanesulfonyl-phenyl)-thiophen-2-ylmethyl]-benzenesulfonamide]",4.28 µM,1510 nM
"CC(C)CN(Cc1cc(-c2cccc(S(=O)(=O)NC(C)(C)C)c2)cs1)S(=O)(=O)c1ccccc1Cl [Example 56, 2-Chloro-N-isobutyl-N-[4-(3-tert-butylaminosulfonyl-phenyl)-thiophen-2-ylmethyl]-benzenesulfonamide]",17.7 µM,39100 nM
"CCN(Cc1ccc(-c2cccc(S(C)(=O)=O)c2)s1)S(=O)(=O)c1ccccc1C(F)(F)F [Example 28, N-Ethyl-N-[5-(3-methanesulfonyl-phenyl)-thiophen-2-ylmethyl]-2-trifluoromethyl-benzenesulfonamide]",19.9 µM,440 nM

# Molecules with a lower IC50 (human LXR alpha), results first:
IC50 (human LXR alpha),IC50 (human LXR beta),SMILES
2.46 µM,104 nM,"CCCN(Cc1ccc(-c2cccc(S(C)(=O)=O)c2)s1)S(=O)(=O)c1ccccc1C(F)(F)F [Example 29, N-[5-(3-Methanesulfonyl-phenyl)-thiophen-2-ylmethyl]-N-propyl-2-trifluoromethyl-benzenesulfonamide]"
1.48 µM,49.5 nM,"CC(C)CN(Cc1cccc(-c2cccc(S(C)(=O)=O)c2)n1)S(=O)(=O)c1ccccc1Cl [Example 47, 2-Chloro-N-isobutyl-N-[6-(3-methanesulfonyl-phenyl)-pyridin-2-ylmethyl]-benzenesulfonamide]"
1.38 µM,22.5 nM,"CC(C)CN(Cc1ccc(-c2cccc(S(C)(=O)=O)c2)s1)S(=O)(=O)c1cccc(Cl)c1F [Example 22, 3-Chloro-2-fluoro-N-isobutyl-N-[5-(3-methanesulfonyl-phenyl)-thiophen-2-ylmethyl]-benzenesulfonamide]"
1.53 µM,19 nM,"COc1ccc(Cl)cc1S(=O)(=O)N(Cc1ccc(-c2cccc(S(C)(=O)=O)c2)s1)CC(C)C [Example 23, 5-Chloro-N-isobutyl-N-[5-(3-methanesulfonyl-phenyl)-thiophen-2-ylmethyl]-2-methoxy-benzenesulfonamide]"
